Results from patent US20220324815A1, “2-PHENOXY-PYRIMIDINE DERIVATIVES AS HERBICIDAL COMPOUNDS” (SYNGENTA CROP PROTECTION AG, priority 2019, published 2022).

Assays:
Type in all cases: in vivo
Details in all cases: 250 g/ha unless otherwise stated, evaluated after 13 days, five-point scale
[1] = test system: Echinochloa crus-galli (ECHCG); assay: Test 1 glasshouse herbicide test, post-emergence application (Table B1)
Method in brief: (§1)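 Pots sown in standard soil; sprayed 1 day (pre-emergence) or 8 days (post-emergence) after sowing at 250 g/ha unless stated, in acetone/water (50:50) with 0.5% Tween 20. Glasshouse 24/16 °C, 14 h light, 65% humidity; damage scored at 13 days on a 1–5 scale (5=81–100%, 1=0–20%).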

Setaria faberi (SETFA) [2] = assay: as above
Method in brief: as §1

Lolium perenne (LOLPE) [3] = assay: as above
Method in brief: as §1

Solanum nigrum (SOLNI) [4] = assay: as above
Method in brief: as §1

[5] = test system: Amaranthus retoflexus (AMARE); assay: as above
Method in brief: as §1

[6] = test system: Ipomoea hederacea (IPOHE); assay: as above
Method in brief: as §1

[7] = test system: Echinochloa crus-galli (ECHCG); assay: Test 1 glasshouse herbicide test, pre-emergence application (Table B2)
Method in brief: as §1

Setaria faberi (SETFA) [8] = assay: as above
Method in brief: as §1

Lolium perenne (LOLPE) [9] = assay: as above
Method in brief: as §1

Solanum nigrum (SOLNI) [10] = assay: as above
Method in brief: as §1

[11] = test system: Amaranthus retoflexus (AMARE); assay: as above
Method in brief: as §1

[12] = test system: Ipomoea hederacea (IPOHE); assay: as above
Method in brief: as §1

| Compound | % phytotoxicity ECHCG, post-emergence application [1] | % phytotoxicity SETFA, post-emergence application (Setaria faberi (SETFA) [2]) | % phytotoxicity LOLPE, post-emergence application (Lolium perenne (LOLPE) [3]) | % phytotoxicity SOLNI, post-emergence application (Solanum nigrum (SOLNI) [4]) | % phytotoxicity AMARE, post-emergence application [5] | % phytotoxicity IPOHE, post-emergence application [6] | % phytotoxicity ECHCG, pre-emergence application [7] | % phytotoxicity SETFA, pre-emergence application (Setaria faberi (SETFA) [8]) | % phytotoxicity LOLPE, pre-emergence application (Lolium perenne (LOLPE) [9]) | % phytotoxicity SOLNI, pre-emergence application (Solanum nigrum (SOLNI) [10]) | % phytotoxicity AMARE, pre-emergence application [11] | % phytotoxicity IPOHE, pre-emergence application [12] |
| --- | --- | --- | --- | --- | --- | --- | --- | --- | --- | --- | --- | --- |
| FC(F)(F)CCSc1ccccc1Oc1ncc(Cl)cn1 [Al] | 4 (4=61 to 80%) | 4 (4=61 to 80%) | 4 (4=61 to 80%) | 4 (4=61 to 80%) | 5 (5=81 to 100%) | 4 (4=61 to 80%) |  |  |  |  |  |  |
| FC(F)(F)CCSc1ccccc1Oc1ncc(Cl)cn1 [Compound A1] |  |  |  |  |  |  | 4 (4=61 to 80%) | 5 (5=81 to 100%) | 3 (3=41 to 60%) | 4 (4=61 to 80%) | 5 (5=81 to 100%) | 3 (3=41 to 60%) |
| [O-][S+](CCC(F)(F)F)c1ccccc1Oc1ncc(Cl)cn1 (centres unmarked) [Compound A2] | 4 (4=61 to 80%) | 4 (4=61 to 80%) | 4 (4=61 to 80%) | 5 (5=81 to 100%) | 5 (5=81 to 100%) | 4 (4=61 to 80%) | 5 (5=81 to 100%) | 5 (5=81 to 100%) | 3 (3=41 to 60%) | 5 (5=81 to 100%) | 5 (5=81 to 100%) | 2 (2=21 to 40%) |
| O=S(=O)(CCC(F)(F)F)c1ccccc1Oc1ncc(Cl)cn1 [Compound A3] | 4 (4=61 to 80%) | 4 (4=61 to 80%) | 4 (4=61 to 80%) | 5 (5=81 to 100%) | 5 (5=81 to 100%) | 3 (3=41 to 60%) | 5 (5=81 to 100%) | 5 (5=81 to 100%) | 4 (4=61 to 80%) | 4 (4=61 to 80%) | 5 (5=81 to 100%) | 3 (3=41 to 60%) |
| FC(F)(F)CCCSc1ccccc1Oc1ncc(Cl)cn1 [Compound A4, 5-chloro-2-[2-(4,4,4-trifluorobutylsulfanyl)phenoxy] pyrimidine] | 4 (4=61 to 80%) | 5 (5=81 to 100%) | 4 (4=61 to 80%) | 5 (5=81 to 100%) | 5 (5=81 to 100%) | 4 (4=61 to 80%) | 5 (5=81 to 100%) | 5 (5=81 to 100%) | 4 (4=61 to 80%) | 4 (4=61 to 80%) | 5 (5=81 to 100%) | 3 (3=41 to 60%) |
| [O-][S+](CCCC(F)(F)F)c1ccccc1Oc1ncc(Cl)cn1 (centres unmarked) [Compound A5] | 5 (5=81 to 100%) | 5 (5=81 to 100%) | 5 (5=81 to 100%) | 5 (5=81 to 100%) | 5 (5=81 to 100%) | 4 (4=61 to 80%) | 5 (5=81 to 100%) | 5 (5=81 to 100%) | 5 (5=81 to 100%) | 5 (5=81 to 100%) | 5 (5=81 to 100%) | 5 (5=81 to 100%) |
| N#Cc1cccc(Oc2ncc(Br)cn2)c1S(=O)(=O)CCCC(F)(F)F [Compound A118] | 4 (4=61 to 80%) | 4 (4=61 to 80%) |  |  | 5 (5=81 to 100%) | 4 (4=61 to 80%) | 5 (5=81 to 100%) | 5 (5=81 to 100%) |  |  | 5 (5=81 to 100%) | 5 (5=81 to 100%) |
| N#Cc1cccc(Oc2ncc(Br)cn2)c1SCCCC(F)(F)F [Compound A119] | 4 (4=61 to 80%) | 4 (4=61 to 80%) |  |  | 5 (5=81 to 100%) | 4 (4=61 to 80%) | 5 (5=81 to 100%) | 5 (5=81 to 100%) |  |  | 5 (5=81 to 100%) | 5 (5=81 to 100%) |
| N#Cc1cccc(Oc2ncc(Br)cn2)c1S(=O)(=O)CCCCC(F)(F)F [Compound A120] | 3 (3=41 to 60%) | 3 (3=41 to 60%) |  |  | 4 (4=61 to 80%) | 4 (4=61 to 80%) | 3 (3=41 to 60%) | 4 (4=61 to 80%) |  |  | 4 (4=61 to 80%) | 5 (5=81 to 100%) |
| N#Cc1cccc(Oc2ncc(Br)cn2)c1SCCCCC(F)(F)F [Compound A121] | 3 (3=41 to 60%) | 4 (4=61 to 80%) |  |  | 5 (5=81 to 100%) | 3 (3=41 to 60%) | 3 (3=41 to 60%) | 5 (5=81 to 100%) |  |  | 5 (5=81 to 100%) | 2 (2=21 to 40%) |
